The record followed here is patent US11998539B2, “Substituted aminoquinolones as DGKalpha inhibitors for immune activation” (Bayer Aktiengesellschaft, priority 2019, dated 2024).

DGKα, sequence (P23743 other isoform, or with tags, fused parts or gaps): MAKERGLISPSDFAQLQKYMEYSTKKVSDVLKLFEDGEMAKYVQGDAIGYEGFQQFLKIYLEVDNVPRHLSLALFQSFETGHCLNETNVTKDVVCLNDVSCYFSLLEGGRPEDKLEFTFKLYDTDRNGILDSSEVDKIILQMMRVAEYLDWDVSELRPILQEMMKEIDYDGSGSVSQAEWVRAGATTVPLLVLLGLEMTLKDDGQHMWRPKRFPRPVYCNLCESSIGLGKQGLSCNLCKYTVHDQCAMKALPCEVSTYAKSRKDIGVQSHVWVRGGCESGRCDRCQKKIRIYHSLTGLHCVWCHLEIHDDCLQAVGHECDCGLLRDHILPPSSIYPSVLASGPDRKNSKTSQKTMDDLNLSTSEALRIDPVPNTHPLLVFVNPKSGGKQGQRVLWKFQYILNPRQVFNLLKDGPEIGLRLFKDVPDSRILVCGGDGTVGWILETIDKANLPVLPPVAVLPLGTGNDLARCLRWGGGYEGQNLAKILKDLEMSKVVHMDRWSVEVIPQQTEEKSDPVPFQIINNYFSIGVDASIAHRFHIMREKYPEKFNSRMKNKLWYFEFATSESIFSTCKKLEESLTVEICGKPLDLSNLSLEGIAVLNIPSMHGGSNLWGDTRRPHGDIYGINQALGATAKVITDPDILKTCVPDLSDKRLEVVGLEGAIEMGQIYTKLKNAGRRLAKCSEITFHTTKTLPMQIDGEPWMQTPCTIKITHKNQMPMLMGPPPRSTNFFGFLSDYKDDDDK

The target in this assay is DGKα (Homo sapiens (Human), UniProt P23743). The assay is described as follows: Human DGKα kinase activity inhibition assay (ADP-Glo). The class given is biochemical. The conditions noted are these: recombinant full-length human DGKα, 55 μM ATP, 7 μM 1,2-dioleoyl-sn-glycerol, read-out: IC50 values of examples in in vitro human DGKa kinase activity inhibition assays. Put shortly:
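Recombinant full-length human DGKα (C-terminal FLAG, from insect cells) phosphorylated 1,2-dioleoyl-sn-glycerol presented in octyl-glucopyranoside micelles. ADP formed was quantified by ADP-Glo luminescence. Compounds were added from 100-fold DMSO stocks.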
Take `Cn1c(=O)c(C#N)c(N2CCC(c3nc4cc(Cl)ccc4o3)CC2)c2cccc(Br)c21` [Example 159, 8-bromo-4-[4-(5-chloro-1,3-benzoxazol-2-yl)piperidin-1-yl]-1-methyl-2-oxo-1,2-dihydroquinoline-3-carbonitrile]: the 50% inhibitory concentration (IC50) amounted to 383 nM.
With `Cn1c(=O)c(C#N)c(N2CCC(c3ccc4ccncc4c3)CC2)c2ccccc21` [Example 74], the concentration for half-maximal inhibition (IC50) is 48 nM.
With `COCCOc1ccc2c(N3CCC(c4nc5cc(C)ccc5o4)CC3)c(C(N)=O)c(=O)n(C)c2c1` [Example 480, 7-(2-methoxyethoxy)-1-methyl-4-[4-(5-methyl-1 3-benzoxazol-2-yl)piperidin-1-yl]-2-oxo-1,2-dihydroquinoline-3-carboxamide] the figure was 9.8 nM.
`Cc1ccc2oc(C3CCN(c4c(C#N)c(=O)n(C)c5ccccc45)CC3C)nc2c1` (mixture of isomers) [Example 111, 1-methyl-4-[3-methyl-4-(5-methyl-1,3-benzoxazol-2-yl)piperidin-1-yl]-2-oxo-1,2-dihydroquinoline-3-carbonitrile, mixture of stereoisomers]: the IC50 was 3.2 nM.
For `Cn1c(=O)c(C#N)c(N2CCC(c3nc4ccccc4s3)CC2)c2cc(Br)ccc21` [Example 169, 4-[4-(1,3-benzothiazol-2-yl)piperidin-1-yl]-6-bromo-1-methyl-2-oxo-1,2-dihydroquinoline-3-carbonitrile], the IC50 came out at 0.6 nM.
As to `Cn1c(=O)c(C#N)c(N2CCC(C)(c3nc4cc(S(C)(=O)=O)ccc4o3)CC2)c2ccccc21` [Example 25, 4-{4-[5-(methanesulfonyl)-1,3-benzoxazol-2-yl]-4-methylpiperidin-1-yl}-1-methyl-2-oxo-1,2-dihydroquinoline-3-carbonitrile], the IC50 was found to be 168 nM.
`COc1ccc(-c2noc(C3CCN(c4c(C#N)c(=O)n(C)c5ccccc45)CC3)n2)cc1` [Example 349, 4-{4-[3-(4-methoxyphenyl)-1,2,4-oxadiazol-5-yl]piperidin-1-yl}-1-methyl-2-oxo-1,2-dihydroquinoline-3-carbonitrile]: the half-inhibitory concentration (IC50) is 15 nM.
Regarding `Cn1c(=O)c(C#N)c(N2CCC(c3nc4ccccc4o3)CC2)c2cccc(Br)c21` [Example 161, 4-[4-(1,3-benzoxazol-2-yl)piperidin-1-yl]-8-bromo-1-methyl-2-oxo-1,2-dihydroquinoline-3-carbonitrile], the IC50 worked out at 1100 nM.
Regarding `Cn1c(=O)c(C#N)c(N2CCC(c3nc4ccc(F)cc4o3)CC2)c2ccccc21` [Example 4, 4-[4-(6-fluoro-1,3-benzoxazol-2-yl)piperidin-1-yl]-1-methyl-2-oxo-1,2-dihydroquinoline-3-carbonitrile], the IC50 turned out to be 2.8 nM.
For the compound `Cc1ccc2oc(C3(C)CCN(c4c(C#N)c(=O)n(C)c5cc(OCC6(C#N)CC6)ccc45)CC3)nc2c1` [Example 251, 7-[(1-cyanocyclopropyl)methoxy]-1-methyl-4-[4-methyl-4-(5-methyl-1,3-benzoxazol-2-yl)piperidin-1-yl]-2-oxo-1,2-dihydroquinoline-3-carbonitrile], the IC50 came to 9.3 nM.
For `Cn1c(=O)c(C#N)c(N2CCC(c3cccc4occc34)CC2)c2ccccc21` [Example 101, 4-[4-(1-benzofuran-4-yl)piperidin-1-yl]-1-methyl-2-oxo-1,2-dihydroquinoline-3-carbonitrile], the IC50 came to 12 nM.
Consider `Cc1c(C#N)cccc1C1CCN(c2c(C#N)c(=O)n(C)c3ccccc23)CC1` [Example 64, 4-[4-(3-cyano-2-methylphenyl)piperidin-1-yl]-1-methyl-2-oxo-1,2-dihydroquinoline-3-carbonitrile], for which the IC50 turned out to be 73 nM.
As to `CCCOc1ccc2c(N3CCC(c4nc5ccccc5s4)CC3)c(C#N)c(=O)n(C)c2c1` [Example 270, 4-[4-(1,3-benzothiazol-2-yl)piperidin-1-yl]-1-methyl-2-oxo-7-propoxy-1,2-dihydroquinoline-3-carbonitrile], the IC50 stood at 72 nM.
For `CC(C)c1ccc(C2CCN(c3c(C#N)c(=O)n(C)c4ccccc34)CC2)cc1` [Example 47, 1-methyl-2-oxo-4-{4-[4-(propan-2-yl)phenyl]piperidin-1-yl}-1,2-dihydroquinoline-3-carbonitrile], the IC50 came to 3 nM.
`Cn1c(=O)c(C(N)=O)c(N2CCC(C)(c3nc4ccccc4o3)CC2)c2ccccc21` [Example 105, 4-[4-(1,3-benzoxazol-2-yl)-4-methylpiperidin-1-yl]-1-methyl-2-oxo-1,2-dihydroquinoline-3-carboxamide]: the IC50 stood at 1.9 nM.
As to `Cn1c(=O)c(C#N)c(N2CCC(c3nc4ccccc4o3)CC2)c2ccc(Br)cc21` [Example 27, 4-[4-(1,3-benzoxazol-2-yl)piperidin-1-yl]-7-bromo-1-methyl-2-oxo-1,2-dihydroquinoline-3-carbonitrile], the IC50 was 2 nM.
With `Cc1ccc2oc(C3(C)CCN(c4c(C#N)c(=O)n(C)c5c(C6COC6)cccc45)CC3)nc2c1` [Example 245, 1-methyl-4-[4-methyl-4-(5-methyl-1,3-benzoxazol-2-yl)piperidin-1-yl]-8-(oxetan-3-yl)-2-oxo-1,2-dihydroquinoline-3-carbonitrile] the figure was 5.9 nM; with `Cc1ccc2oc(C3(C)CCN(c4c(C#N)c(=O)n(C)c5cc(Br)ccc45)CC3)nc2c1` [Example 110, 7-bromo-1-methyl-4-[4-methyl-4-(5-methyl-1,3-benzoxazol-2-yl)piperidin-1-yl]-2-oxo-1,2-dihydroquinoline-3-carbonitrile], 2.6 nM; with `Cn1c(=O)c(C#N)c(N2CCC(c3nc4cc(F)c(F)cc4o3)CC2)c2ccccc21` [Example 22, 4-[4-(5,6-difluoro-1,3-benzoxazol-2-yl)piperidin-1-yl]-1-methyl-2-oxo-1,2-dihydroquinoline-3-carbonitrile], 6 nM.
As for `Cc1ccc2oc(C3CCN(c4c(C(N)=O)c(=O)n(C)c5cc(OCC(N)=O)ccc45)CC3)nc2c1` [Example 508, 7-(2-amino-2-oxoethoxy)-1-methyl-4-[4-(5-methyl-1,3-benzoxazol-2-yl)piperidin-1-yl]-2-oxo-1,2-dihydroquinoline-3-carboxamide], the half-maximal inhibitory concentration (IC50) came out at 1.4 nM.
The value for `Cc1ccc2oc(C3(C)CCN(c4c(C#N)c(=O)n(C)c5cc(OC6COC6)ccc45)CC3)nc2c1` [Example 241, 1-methyl-4-[4-methyl-4-(5-methyl-1,3-benzoxazol-2-yl)piperidin-1-yl]-7-[(oxetan-3-yl)oxy]-2-oxo-1,2-dihydroquinoline-3-carbonitrile] was 2.5 nM; that for `Cn1c(=O)c(C(N)=O)c(N2CCC(c3nc4ccccc4o3)CC2)c2cc(F)ccc21` [Example 299, 4-[4-(1,3-benzoxazol-2-yl)piperidin-1-yl]-6-fluoro-1-methyl-2-oxo-1,2-dihydroquinoline-3-carboxamide] was 1 nM; that for `Cc1nc2cc(C3CCN(c4c(C#N)c(=O)n(C)c5ccccc45)CC3)ccc2s1` [Example 346, 1-methyl-4-[4-(2-methyl-1,3-benzothiazol-5-yl)piperidin-1-yl]-2-oxo-1,2-dihydroquinoline-3-carbonitrile] was 28 nM.
Regarding `Cn1c(=O)c(C#N)c(N2CCC(c3nc4ccc(Cl)nc4s3)CC2)c2ccccc21` [Example 19, 4-[4-(5-chloro[1,3]thiazolo[5,4-b]pyridin-2-yl)piperidin-1-yl]-1-methyl-2-oxo-1,2-dihydroquinoline-3-carbonitrile], the half-inhibitory concentration (IC50) came to 15 nM.
The value for `Cc1nc2ccc(C3CCN(c4c(C#N)c(=O)n(C)c5ccccc45)CC3)cc2s1` [Example 377, 1-methyl-4-[4-(2-methyl-1,3-benzothiazol-6-yl)piperidin-1-yl]-2-oxo-1,2-dihydroquinoline-3-carbonitrile] was 4.8 nM; that for `Cc1ccc2oc(C3(C)CCN(c4c(C#N)c(=O)n(C)c5c(OC6COC6)cccc45)CC3)nc2c1` [Example 253, 1-methyl-4-[4-methyl-4-(5-methyl-1,3-benzoxazol-2-yl)piperidin-1-yl]-8-[(oxetan-3-yl)oxy]-2-oxo-1,2-dihydroquinoline-3-carbonitrile] was 14 nM.
With `Cc1ccc2c(c1)c(N1CCC(c3nc4ccc(Cl)cc4o3)CC1)c(C(N)=O)c(=O)n2C` [Example 202, 4-[4-(6-chloro-1,3-benzoxazol-2-yl)piperidin-1-yl]-1,6-dimethyl-2-oxo-1,2-dihydroquinoline-3-carboxamide] the figure was 2.7 nM; with `Cc1ccc2oc(C3CCN(c4c(C#N)c(=O)n(C)c5cc(OC6CCOC6)ccc45)CC3)nc2c1` (racemic) [Example 379, (rac)-1-methyl-4-[4-(5-methyl-1,3-benzoxazol-2-yl)piperidin-1-yl]-2-oxo-7-[(oxolan-3-yl)oxy]-1,2-dihydroquinoline-3-carbonitrile], 1 nM; with `Cc1ccc2nc(C3CCN(c4c(C(N)=O)c(=O)n(C)c5ccc(C)cc45)CC3)oc2c1` [Example 196, 1,6-dimethyl-4-[4-(6-methyl-1,3-benzoxazol-2-yl)piperidin-1-yl]-2-oxo-1,2-dihydroquinoline-3-carboxamide], 3.1 nM.
Turning to `Cc1ccc2oc(C3CCN(c4c(C#N)c(=O)n(C)c5cc(OC6CCOC6)c(Br)cc45)CC3)nc2c1` (racemic) [Example 424, (rac)-6-bromo-1-methyl-4-[4-(5-methyl-1,3-benzoxazol-2-yl)piperidin-1-yl]-2-oxo-7-[(oxolan-3-yl)oxy]-1,2-dihydroquinoline-3-carbonitrile], the IC50 turned out to be 0.3 nM.
Turning to `Cc1cccc(-c2noc(C3CCN(c4c(C(N)=O)c(=O)n(C)c5ccccc45)CC3)n2)c1` [Example 460, 1-methyl-4-{4-[3-(3-methylphenyl)-1,2,4-oxadiazol-5-yl]piperidin-1-yl}-2-oxo-1,2-dihydroquinoline-3-carboxamide], the IC50 was 3.5 nM.
Regarding `Cn1c(=O)c(C#N)c(N2CCC(c3cccc(Cl)c3)CC2)c2ccccc21` [Example 325, 4-[4-(3-chlorophenyl)piperidin-1-yl]-1-methyl-2-oxo-1,2-dihydroquinoline-3-carbonitrile], the IC50 was determined as 26 nM.
